Consider 8 compounds from patent publication US10118922B2 (Janssen Pharmaceutica NV, priority 2013, dated 2018).

One assay addresses T1, Human GPR120 short form (Homo sapiens, UniProt Q5NUL3).
T1 construct: expressed in transfected cells
T1 sequence (Q5NUL3 1-361): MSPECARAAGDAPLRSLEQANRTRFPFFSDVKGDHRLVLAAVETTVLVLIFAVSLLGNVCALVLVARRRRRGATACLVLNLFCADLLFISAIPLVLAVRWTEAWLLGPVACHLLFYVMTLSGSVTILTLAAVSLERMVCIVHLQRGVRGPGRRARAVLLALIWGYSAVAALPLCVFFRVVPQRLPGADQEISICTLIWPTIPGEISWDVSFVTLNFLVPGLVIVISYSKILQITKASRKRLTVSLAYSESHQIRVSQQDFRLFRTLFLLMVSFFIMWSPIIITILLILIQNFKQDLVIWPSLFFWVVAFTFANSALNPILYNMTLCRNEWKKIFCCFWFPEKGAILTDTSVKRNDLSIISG
The assay is described as follows: Human GPR120 calcium flux assay, Procedure Calcium A. Particulars: HEK-293 cells, FLIPR, 2500 cells/well; read-out: GPR120 Ca2+ Assay A EC50. In kind it is cell-based. Here is the method: These cells are first loaded with the Ca^+2 sensitive dye, Fluo-4 NR. Upon stimulation, intracellular released Ca^+2 can bind to the dye and alter its fluorescence intensity. This increase in fluorescence signal, and thus the flux in intracellular [Ca^2+], is detected and quantitated by fluorescence imaging using a FLIPR reader. The effect of the agonist is measured as a function of concentration and used to calculate an EC50 based upon a response curve.
In this procedure 2500 cells/well were employed.
A Human GPR120 clone (Genbank accession number NM_001195755.1) was placed into the pcDNA3.1 mammalian expression vector carrying the neomycin resistance gene. A stable mammalian cell was generated by placing the above clone into a HEK293 background. […] Cells were split 2 times a week to keep the cells in the log-phase growth.
In preparation for the assay, HEK cells stably transfected with Human GPR120 (2.5K cells per well in 25 uL growth medium) were seeded into 384-well plates and then incubated overnight (37° C., 5% CO2). The next day, the media was changed to 20 μL assay buffer and the cell starved for 1 h at 37° C. The dye loading solution (2× dye) was prepared using 10 mL assay buffer, 100 μL of 250 mM probenecid, 1 bottle of Component A, and 20 μl of dye in DMSO. Twenty μL of the 2× dye loading buffer was then added to each well. The plates were incubated at 37° C. for 30 min, then at room temperature for an additional 15 minutes, before performing the assay on FLIPR.
The assay was performed on a FLIPR plate reader using the following parameters. Baseline was read for 10 seconds at 1 sec intervals. The program was set to transfer 10 μL of ligand from compound plate to cell plate after baseline reading. Aspiration was executed at: 10 μL/sec speed, 4.6 μL height; Dispensing was executed at: 30 μL/sec speed, 45 μL height. After compound addition, each well was read for 300 sec, with measurements collected at 1 sec intervals.
The kinetic data from the FLIPR was based upon a 5 minute window for data collection. The fluorescence of each sample well was used for individual calculations of a normalized RFU value, which was defined as maximum response minus the minimum response. […] The Fitting Equation was: Y=Bottom+(Top-Bottom)/(1+10^((Log EC50−X)*HillSlope)), where X is the log of the concentration and Y is the response.

For assay [1], the target named is T2, long form of human GPR120 (Homo sapiens, UniProt Q5NUL3).
T2 construct: host or cells: PathHunter CHO-K1 GPR120 β-Arrestin Cell Line
T2 sequence (Q5NUL3 1-377 isoform Q5NUL3-1): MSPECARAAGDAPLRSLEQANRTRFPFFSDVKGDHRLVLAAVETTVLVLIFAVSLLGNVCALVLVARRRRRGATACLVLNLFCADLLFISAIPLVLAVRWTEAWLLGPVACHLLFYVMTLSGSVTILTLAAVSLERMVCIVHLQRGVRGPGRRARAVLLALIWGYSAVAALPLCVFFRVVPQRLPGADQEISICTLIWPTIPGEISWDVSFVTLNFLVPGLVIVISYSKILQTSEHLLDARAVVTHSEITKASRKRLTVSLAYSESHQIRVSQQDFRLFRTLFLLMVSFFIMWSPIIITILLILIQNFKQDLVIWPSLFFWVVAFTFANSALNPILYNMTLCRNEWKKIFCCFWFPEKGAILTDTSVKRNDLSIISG
The assay is described as follows: Human GPR120 DiscoveRx PathHunter beta-arrestin assay, Procedure β-arrestin A. In kind it is cell-based. Particulars: PathHunter CHO-K1 GPR120 β-Arrestin cells, 3000 cells per well; read-out: hGPR120 β-arrestin A EC50. An excerpt:
The binding of an agonist (medium/long chain fatty acids or small molecule agonists) to the G-protein-coupled receptor GPR120 activates phospholipase C, leading to release of intracellular Ca^+2 through the generation of inositol 1,4,5-trisphosphate (InsP3 or IP3). GPR120 activation can also trigger intracellular signaling via recruitment of Beta-Arrestin. In the present method, agonist-induced activation of the human GPR120 receptor is monitored through the use of PathHunter CHO-K1 GPR120 Beta-Arrestin Cell Line engineered by DiscoveRx, as detailed below. The cell lines are designed to co-express both the ProLink/Enzyme Donor (PK)-tagged GPCR and the Enzyme […] (EA)-tagged Beta-Arrestin fusion proteins. Upon GPR120 receptor stimulation/activation, the EA-tagged Beta-Arrestin portion is translocated to the tagged receptor, where the two enzyme fragments are brought within close proximity. Under these conditions, these fragments can interact and form an active Beta-gal enzyme complex through Enzyme Fragment Complementation (EFC). […] This in vitro assay therefore serves to assess compound agonist activity of the GPR120.
In Procedure β-arrestin A, the cell used were PathHunter CHO-K1 GPR120 β-Arrestin Cell Line, expressing the long form of human GPR120 (Genbank accession number NM_181745), with 3000 cells per well.
The selected CHO-K1 GPR120 β-Arrestin cells were cultured in Ham's F12 media supplemented with 10% fetal bovine serum (FBS), 1% Glutamine, 1×p/s, 800 μg/mL G418 and 300 μg/mL Hygromycin B (for selection). Cell stocks were maintained and grown in a sub-confluent state using standard cell culture procedures. The day before the experiment, the cells were harvested with non-enzymatic cell dissociation buffer and re-suspended in complete growth media at the desired concentration. […] The seeded plates were incubated overnight at 37° C.
On the day of the experiment, the Assay Buffer containing (a) HBSS with Ca^++ and Mg^++, (b) 20 mM HEPES, and (c) 0.1% BSA stabilizer (pH 7.4) was prepared. The growth medium was gently removed from the cell plates and 20 μL of Assay Buffer added to each well. The plate was then incubated at 37° C. for 60 min. […] Five μL of compound dilution was then added to each well and the plate incubated at 37° C. for 90 min. The detection reagents were prepared according to the manufacture's instruction. Twelve μL of the detection reagents were added to each well and the plate incubated at room temperature for 60 min.
The % activity relative to the positive control was calculated using the following equation:
The Fitting Equation was: Y=Bottom+(Top-Bottom)/(1+10^((Log EC50−X)*HillSlope)), where X is the log of the concentration and Y is the response.

For assay [2], the system named is C57B16 mice on a high fat diet. The experiment in a line: GPR120 DIO mice OGTT screening. Format: in vivo, mouse. The settings on record: dosed 30 min prior to glucose PO. Here is the method: 18-22 week old, C57B16 mice on a high fat diet (60% HFD) for 12-16 weeks (ave. body weight ˜37-41 g) were fasted for 6 hr, with removal of food occurring at 7 am on the morning of the study. The animals were sorted into treatment groups the day before the study by body weight. Animals outside the bounds of ˜30-50 g were left out of the study. The animals had been handled and shammed a total of 5-8 days (1-3 days immediately prior to the study). Glucose (in 1 mL syringes) was drawn up the morning of the study. Test compounds were kept spinning and were only drawn into 1 ml syringes prior to study commencement. Animals were bled via tail snip to determine basal glucose levels prior to dosing of treatments. An Ascensia BREEZE Blood Glucose Monitoring System by Bayer was used for determining glucose levels.
Animals were moved into the testing room at ˜9-11 am, to yield them time to acclimate. The bleeds and dosing started at approximately 1 pm in 30-second intervals per animal. All groups were dosed 30 minutes prior to glucose administration at a dose volume of 10 ml/kg (the dose volume was calculated separately for each individual animal). Test compounds were administered at one or more of the following dosages: 0.1 mg/kg, 0.3 mg/kg, 1 mg/kg, 3 mg/kg and 10 mg/kg.
Thirty minutes after the first dose (with test compound) animals were bled again for a second baseline, or T=0, and immediately dosed with glucose (20% solution; TEKNOVA, 250 ml sterile bottle w/ catalogue number G0525) via a PO injection. The exact dose volume for glucose was also calculated separately for each individual animal.
Blood glucose was measured at 15, 30, 45, 60, and 90 minutes post-glucose administration via the snipped tail. If an animal reached a value of “HI”, the upper limit of the glucometer (600 mg/dl) was substituted as the blood glucose value and the study was analyzed as normal with no exclusions. If 50% or more of any treatment group reaches a “HI” value at least once, the study was considered invalid and repeated. Glucose values were typed into an EXCEL spreadsheet where they were used to calculate glucose AUC and delta AUC post-compound and post-glucose. The glucose excursion curves and the different versions of the AUC's were graphed in GraphPad Prism 5.
Note: All statistics completed in this study were completed using the statistical software package GraphPad Prism 5. Standard procedures for analyzing data sets from screening GPR120 compounds in DIO mouse OGTT's were as listed here below. In addition to the statistics that were run using GraphPad Prism 5, Microsoft Excel was used to calculate the percent changes in AUC from vehicle groups as detailed below.
Change from −30 to 0 BSLN Glucose, Raw Glucose AUC −30 to 90 min, Delta Glucose AUC −30 to 90 min, Raw Glucose AUC 0 to 90 min, Delta Glucose AUC 0 to 90 min were analyzed using Column Statistics Analysis, with mean values used to calculate % change from the vehicle mean group, as well as mean, SEM and/or % change from vehicle, where appropriate; and using One-Way ANOVA w/ a Tukey Post-Test (Comparing All Pairs of Columns) with each treatment group examined to see if it was statistically significant compared to vehicle (*=P<0.05, **=P<0.01, ***=P<0.001).

Turning to `CCc1ccc(-c2cc(F)sc2COc2c(F)cc(CCC(=O)O)cc2F)cc1` [Cpd 7], the values for the EC50 (at Human GPR120 short form; in assay [1]) were 101 nM and 209 nM, respectively.

`Cc1ccc(-c2nsc(C(F)(F)F)c2COc2c(F)cc(CCC(=O)O)cc2F)c(F)c1` [Cpd 65, 3-(3,5-difluoro-4-[[3-(2-fluoro-4-methylphenyl)-5-(trifluoromethyl)-1,2-thiazol-4-yl]methoxy]phenyl)propanoic acid]: in assay [2], the “DIO Lowering Glucose AUC (−30 to 90) @ 10 mg/kg” value is on record as −0.61. The same measure, in the same setting: as for `O=C(O)CCc1cc(F)c(OCc2c(-c3ccc(Cl)c(F)c3)nsc2C(F)(F)F)c(F)c1` [Cpd 67, 3-(4-((3-(4-chloro-3-fluorophenyl)-5-(trifluoromethyl)isothiazol-4-yl)methoxy)-3,5-difluorophenyl)propanoic acid], the figure is −0.78; as for `CCc1ccc(-c2nsc(C(F)(F)F)c2COc2ccc(CCC(=O)O)c(F)c2F)cc1` [Cpd 73, 3-(4-((3-(4-ethylphenyl)-5-(trifluoromethyl)isothiazol-4-yl)methoxy)-2,3-difluorophenyl)propanoic acid], −0.51; as for `O=C(O)CCc1cc(F)c(OCc2c(-c3ccc(Cl)cc3F)nsc2C(F)(F)F)c(F)c1` [Cpd 74, 3-(4-((3-(4-chloro-2-fluorophenyl)-5-(trifluoromethyl)isothiazol-4-yl)methoxy)-3,5-difluorophenyl)propanoic acid], −0.71. The same measure, in the same setting: as for `Cc1ccc(-c2nsc(C(F)(F)F)c2COc2c(F)cc(CC(C)C(=O)O)cc2F)c(F)c1` (centres unmarked) [Cpd 76, 3-(3,5-difluoro-4-[[3-(2-fluoro-4-methylphenyl)-5-(trifluoromethyl)-1,2-thiazol-4-yl]methoxy]phenyl)-2-methylpropanoic acid], the figure is −0.8. As for `O=C(O)CCc1cc(F)c(OCc2c(-c3ccc(C4CC4)cc3)nsc2C(F)(F)F)c(F)c1` [Cpd 160, 3-(4-{[3-(4-Cyclopropylphenyl)-5-(trifluoromethyl)isothiazol-4-yl]methoxy}-3,5-difluorophenyl)propanoic acid], the 50% effective concentration (EC50) was determined as 200 nM on Human GPR120 short form and 116 nM in assay [1].

For the compound `CCc1ccc(-c2nsc(C(F)(F)F)c2COc2c(F)cc([C@@H]3C[C@H]3CO)cc2F)cc1` [Cpd 219, [(1R,2R)-2-(4-{[3-(4-Ethylphenyl)-5-(trifluoromethyl)isothiazol-4-yl]methoxy}-3,5-difluorophenyl)cyclopropyl]methanol], the figures for the EC50 (at Human GPR120 short form; in assay [1]) were 690 nM and 210 nM, respectively.

What is called EC50 is the concentration at which the effect is half-maximal.
